# Columns and labels:
# TNFα [1] = test: TNFα expression in differentiated 3T3-L1 adipocytes; format: cell-based, mouse; conditions: nifedipine 10 μmol/L alone, 48 h
# Experimental: 3T3-L1 pre-adipocytes were incubated at a density of 8000 cells/cm^2 (10 cm^2 dish) and grown in Dulbecco's modified Eagle's medium (DMEM) containing 10% FBS and antibiotics (adipocyte medium) at 37° C. in 5% CO2 in air. Confluent pre-adipocytes were induced to differentiate with a standard differentiation medium consisting of DMEM-F10 (1:1, vol/vol) medium supplemented with 1% fetal bovine serum (FBS), 1 μM dexamethasone, isobutylmethylxanthine (IBMX) (0.5 mM) and antibiotics (1% Penicillin-Streptomycin). Pre-adipocytes were maintained in this differentiation medium for 3 days and subsequently cultured in adipocyte medium. Cultures were re-fed every 2-3 days to allow 90% cells to reach fully differentiation before conducting chemical treatment. […] Cell viability was measured via trypan blue exclusion. Adipocyte and muscle 18s, TNFα, IL-6, IL-8, IL-15 and adiponectin were quantitatively measured using a smart cycler real-time PCR system (Cepheid, Sunnyvale, Calif.) with a TaqMan 1000 Core Reagent Kit (Applied Biosystems, Branchburg, N.J.). […] Reactions of quantitative RT-PCR for standards and unknown samples were also performed according to the instructions of Smart Cycler System (Cepheid, Sunnyvale, Calif.) and TaqMan Real Time PCR Core Kit (Applied Biosystems, Branchburg, N.J.). The mRNA quantitation for each sample was further normalized using the corresponding 18s quantitation.
# [2] = test system: ROS production in cultured 3T3-L1 adipocytes; test: ROS production in cultured adipocytes (H2-DCFDA); format: cell-based, murine; conditions: 48 hours
# Experimental: 3T3-L1 preadipocytes were incubated at a density of 8000 cells/cm^2 (10 cm^2 dish) and grown in Dulbecco's modified Eagle's medium (DMEM) containing 10% FBS and antibiotics (adipocyte medium) at 37° C. in 5% CO2 in air. Confluent preadipocytes were induced to differentiate with a standard differentiation medium consisting of DMEM-F 10 (1:1, vol/vol) medium supplemented with 1% FBS, 1 μM dexamethasone, IBMX (0.5 mM) and antibiotics (1% Penicillin-Streptomycin). Preadipocytes were maintained in this differentiation medium for 3 days and subsequently cultured in adipocyte medium. Cultures were re-fed every 2-3 days to allow 90% of cells to reach full differentiation before conducting chemical treatment. Chemicals were freshly diluted in adipocyte medium before treatment. Cells were washed with fresh adipocyte medium, re-fed with medium containing the different treatments, and incubated at 37° C. in 5% CO2 in air before analysis. Cell viability was measured via trypan blue exclusion. […] Cells were loaded with H2-DCFDA (2 μmol/L) 30 minute before the end of the incubation period (48 h). After washing twice with PBS, cells were scraped and disrupted by sonication on ice (20s). Fluorescence (emission 543 nm or 527 nm) and DNA content were then measured as described previously. The intensity of fluorescence was expressed as arbitary units per ng DNA.
# IL-15 = IL-15 expression in differentiated Zen-bio human adipocytes; format: cell-based; conditions: 10 nmol/L 1α, 25-(OH)2-D3 or 10 μmol/L nifedipine, 48 h; p=0.473
# Experimental: (§1) Human pre-adipocytes used in this study were supplied by Zen-Bio (Research Triangle, N.C.). […] The cells are isolated from the stromal vascular fraction of human subcutaneous adipose tissue and differentiated in vitro as follows: […] Preadipocytes were maintained in this differentiation medium for 3 days and subsequently cultured in adipocyte medium in which BRL49653 and MIX were omitted. Cultures were re-fed every 2-3 days till fully differentiated. Cells were incubated in serum free medium overnight before chemical treatment. Chemicals were freshly diluted in adipocyte medium before treatment. […] Cell viability was measured via trypan blue exclusion. Adipocyte and muscle 18s, TNFα, IL-6, IL-8, IL-15 and adiponectin were quantitatively measured using a smart cycler real-time PCR system (Cepheid, Sunnyvale, Calif.) with a TaqMan 1000 Core Reagent Kit (Applied Biosystems, Branchburg, N.J.). […] Reactions of quantitative RT-PCR for standards and unknown samples were also performed according to the instructions of Smart Cycler System (Cepheid, Sunnyvale, Calif.) and TaqMan Real Time PCR Core Kit (Applied Biosystems, Branchburg, N.J.). The mRNA quantitation for each sample was further normalized using the corresponding 18s quantitation.
# adiponectin = test: Adiponectin expression in differentiated Zen-bio human adipocytes; format: cell-based; conditions: 10 nmol/L 1α, 25-(OH)2-D3 or 10 μmol/L nifedipine, 48 h; p=0.377
# Experimental: as §1
# [3] = test system: Mitochondrial potential in cultured wild-type 3T3-L1 adipocytes; test: Mitochondrial membrane potential (JC-1); format: cell-based, murine; conditions: GDP 100 μmol/L with H2O2 100 nmol/L, 48 hours
# Experimental: 3T3-L1 preadipocytes were incubated at a density of 8000 cells/cm^2 (10 cm^2 dish) and grown in Dulbecco's modified Eagle's medium (DMEM) containing 10% FBS and antibiotics (adipocyte medium) at 37° C. in 5% CO2 in air. Confluent preadipocytes were induced to differentiate with a standard differentiation medium consisting of DMEM-F 10 (1:1, vol/vol) medium supplemented with 1% FBS, 1 μM dexamethasone, IBMX (0.5 mM) and antibiotics (1% Penicillin-Streptomycin). Preadipocytes were maintained in this differentiation medium for 3 days and subsequently cultured in adipocyte medium. Cultures were re-fed every 2-3 days to allow 90% of cells to reach full differentiation before conducting chemical treatment. Chemicals were freshly diluted in adipocyte medium before treatment. […] Cell viability was measured via trypan blue exclusion.
# Mitochondrial membrane potential was analyzed fluorometrically with a lipophilic cationic dye JC-1 (5,5′,6,6′-tetrachloro-1,1′,3,3′-tetraethylbenzimidazol carbocyanine iodide) using a mitochondrial potential detection kit (Biocarta, San Diego, Calif.). Mitochondrial potential was determined as the ratio of red fluorescence (excitation 550 nm, emission 600 mn) and green fluorescence (excitation 485 nm, emission 535 nm) using a fluorescence microplate reader.
# 3T3-L1 adipocytes = test: DNA synthesis / cell proliferation (CyQUANT); format: cell-based, murine; conditions: 48 hours
# Experimental: 3T3-L1 preadipocytes were incubated at a density of 8000 cells/cm^2 (10 cm^2 dish) and grown in Dulbecco's modified Eagle's medium (DMEM) containing 10% FBS and antibiotics (adipocyte medium) at 37° C. in 5% CO2 in air. Confluent preadipocytes were induced to differentiate with a standard differentiation medium consisting of DMEM-F 10 (1:1, vol/vol) medium supplemented with 1% FBS, 1 μM dexamethasone, IBMX (0.5 mM) and antibiotics (1% Penicillin-Streptomycin). Preadipocytes were maintained in this differentiation medium for 3 days and subsequently cultured in adipocyte medium. Cultures were re-fed every 2-3 days to allow 90% of cells to reach full differentiation before conducting chemical treatment. Chemicals were freshly diluted in adipocyte medium before treatment. Cells were washed with fresh adipocyte medium, re-fed with medium containing the different treatments, and incubated at 37° C. in 5% CO2 in air before analysis. Cell viability was measured via trypan blue exclusion. Cells were plated in DMEM with different treatment in duplicate in 96-well plates. After 48 h, a CyQUANT Cell Proliferation Kit (Molecular Probes, Eugene, Oreg.) was used following the manufacturer's protocol a microplate fluorometer (Packard Instrument Company, Inc., Downers Grove, Ill.) was used to measure CyQUANT fluorescence. Cell viability was determined by Trypan blue exclusion examination.
# cyclin A = test: Cyclin A expression in 3T3-L1 adipocytes; format: cell-based, murine; conditions: added to glucose 30 mmol/L, 48 hours; nifedipine 10 μmol/L
# Experimental: (§2) 3T3-L1 preadipocytes were incubated at a density of 8000 cells/cm^2 (10 cm^2 dish) and grown in Dulbecco's modified Eagle's medium (DMEM) containing 10% FBS and antibiotics (adipocyte medium) at 37° C. in 5% CO2 in air. Confluent preadipocytes were induced to differentiate with a standard differentiation medium consisting of DMEM-F 10 (1:1, vol/vol) medium supplemented with 1% FBS, 1 μM dexamethasone, IBMX (0.5 mM) and antibiotics (1% Penicillin-Streptomycin). Preadipocytes were maintained in this differentiation medium for 3 days and subsequently cultured in adipocyte medium. Cultures were re-fed every 2-3 days to allow 90% of cells to reach full differentiation before conducting chemical treatment. Chemicals were freshly diluted in adipocyte medium before treatment. […] Cell viability was measured via trypan blue exclusion. Adipocyte 18s, cyclin A, NADPH oxidase, and UCP2 were quantitatively measured using a Smart Cycler Real Time PCR System (Cepheid, Sunnyvale, Calif.) with a TaqMan 1000 Core Reagent Kit (Applied Biosystems, Branchburg, N.J.). […] Reactions of quantitative RT-PCR for standards and unknown samples were also performed according to the instructions of Smart Cycler System (Cepheid, Sunnyvale, Calif.) and TaqMan Real Time PCR Core Kit (Applied Biosystems, Branchburg, N.J.). The mRNA quantitation for each sample was further normalized using the corresponding 18s quantitation.
# NADPH oxidase = NADPH oxidase expression in 3T3-L1 adipocytes; format: cell-based, murine; conditions: added to glucose 30 mmol/L, 48 hours; nifedipine 10 μmol/L
# Experimental: as §2
# IL-6 = IL-6 expression in RAW 264 macrophages; format: cell-based; conditions: added to calcitriol; macrophages cultured alone
# Experimental: (§3) RAW 264 macrophages and 3T3-L1 preadipocytes (American Type Culture Collection) were incubated at a density of 8000 cells/cm2 (10 cm2 dish) and grown in Dulbecco's modified Eagle's medium (DMEM) containing 10% FBS and antibiotics (adipocyte medium) at 37° C. in 5% CO2 in air. Confluent 3T3-L1 preadipocytes were induced to differentiate with a standard differentiation medium consisting of DMEM-F10 (1:1, vol/vol) medium supplemented with 1% FBS, 1 μM dexamethasone, IBMX (0.5 mM) and antibiotics (1% Penicillin-Streptomycin). Preadipocytes were maintained in this differentiation medium for 3 days and subsequently cultured in adipocyte medium. Cultures were re-fed every 2-3 days to allow 90% cells to reach fully differentiation for 3T3-L1 adipocytes or grow to a confluence for RAW 264 before conducting chemical treatment.
# (§4) Human adipocytes (Zen-Bio, Inc.), 3T3-L1 adipocytes, RAW264 macrophages were obtained and co-cultured by using transwell inserts with 0.4 μm porous membranes (Corning) to separate adipocytes and macrophages. All data are expressed as mean±SEM. Data were evaluated for statistical significance by analysis of one-way or two-way variance (ANOVA; means with different letter differ, p<0.05).
# (§5) Adipocyte and muscle 18s, CD14, TNFα, MIP, M-CSF, IL-6 and MCP-1 were quantitatively measured using a Smart Cycler Real Time PCR System (Cepheid, Sunnyvale, Calif.) with a TaqMan 1000 Core Reagent Kit (Applied Biosystems, Branchburg, N.J.). The primers and probe sets were obtained from Applied Biosystems TaqMan® Assays-on-Demand™ Gene Expression primers and probe set collection according to manufacture's instruction. […] Reactions of quantitative RT-PCR for standards and unknown samples were also performed according to the instructions of Smart Cycler System (Cepheid, Sunnyvale, Calif.) and TaqMan Real Time PCR Core Kit (Applied Biosystems, Branchburg, N.J.). The mRNA quantitation for each sample was further normalized using the corresponding 18s quantitation.
# TNFα [4] = test: TNFα expression in RAW 264 macrophages; format: cell-based; conditions: added to calcitriol; macrophages cultured alone
# Experimental: as §3, §4, §5
# [5] = added to glucose 30 mmol/L, nifedipine 10 μmol/L
smiles,measurement,setting,value
COC(=O)C1=C(C)NC(C)=C(C(=O)OC)C1c1ccccc1[N+](=O)[O-] [nifedipine],"effect on TNFα expression, alone",TNFα [1],no effect
same,inhibition of H2O2 induced ROS production,"[2]; nifedipine 10 μmol/L with H2O2 100 nmol/L, p<0.003",25%
same,effect on IL-15 expression,IL-15,no effect
same,effect on adiponectin expression,adiponectin,no effect
Nc1nc2c(ncn2[C@@H]2O[C@H](COP(=O)(O)OP(=O)(O)O)[C@@H](O)[C@H]2O)c(=O)[nH]1 [GDP],augmentation of the H2O2 effect on mitochondrial potential,[3],10%
same,augmentation of the stimulation of cell proliferation by H2O2,"3T3-L1 adipocytes; GDP 100 μmol/L with H2O2 100 nmol/L, p<0.005",183%
same,effect on glucose induced DNA synthesis,3T3-L1 adipocytes; [5],augmented
same,effect on glucose stimulated cyclin A expression,cyclin A,augmented
same,increase of ROS production compared to H2O2 treatment alone,"[2]; GDP 100 μmol/L with H2O2 100 nmol/L, p<0.01",24%
same,effect on high glucose induced ROS production,[2]; [5],further stimulated ROS production compared to glucose alone
same,effect on NADPH oxidase expression,NADPH oxidase,suppressed
O=[N+]([O-])c1ccc(O)c([N+](=O)[O-])c1 [DNP],effect on calcitriol stimulated IL-6 expression,IL-6,blocked
same,effect on calcitriol stimulated TNFα expression,TNFα [4],blocked

# From US20070092577A1, “Dietary calcium for reducing the production of reactive oxygen species” (University of Tennessee Research Foundation, priority 2005, published 2007)
